PubChem BioAssay (NCI)
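Protocol summary: plate cells (96-well), add compound at 5 concentrations, incubate 48 h, interpolate endpoints linearly. TGI marks complete inhibition of growth.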

Key:
Assay in all cases: growth of human tumour cells (NCI), 48 h
MCF7 breast = test system: MCF7 breast
HCC-2998 colon = test system: HCC-2998 colon
SNB-19 CNS = test system: SNB-19 CNS
OVCAR-4 ovarian = test system: OVCAR-4 ovarian
PC-3 prostate = test system: PC-3 prostate
HS 578T breast = test system: HS 578T breast
UACC-257 melanoma = test system: UACC-257 melanoma
HT29 colon = test system: HT29 colon
ACHN renal = test system: ACHN renal
U251 CNS = test system: U251 CNS
SF-539 CNS = test system: SF-539 CNS
SF-268 CNS = test system: SF-268 CNS
MDA-N = test system: MDA-N
LOX IMVI melanoma = test system: LOX IMVI melanoma
SF-295 CNS = test system: SF-295 CNS
SW-620 colon = test system: SW-620 colon

| Compound | TGI (MCF7 breast) [µM] | TGI (HCC-2998 colon) [µM] | TGI (SNB-19 CNS) [µM] | TGI (OVCAR-4 ovarian) [µM] | TGI (PC-3 prostate) [µM] | TGI (HS 578T breast) [µM] | TGI (UACC-257 melanoma) [µM] | TGI (HT29 colon) [µM] | TGI (ACHN renal) [µM] | TGI (U251 CNS) [µM] | TGI (SF-539 CNS) [µM] | TGI (SF-268 CNS) [µM] | TGI (MDA-N) [µM] | TGI (LOX IMVI melanoma) [µM] | TGI (SF-295 CNS) [µM] | TGI (SW-620 colon) [µM] |
| --- | --- | --- | --- | --- | --- | --- | --- | --- | --- | --- | --- | --- | --- | --- | --- | --- |
| O=CN1CCN(C(=O)c2ccc(Cl)cc2)C1=S | 11 | 33.9 | 29.5 | 35.5 | 32.1 | > 100 | 33.7 | 33 | 31 | 28.2 | 61.7 | 35.9 | 31.5 | 24.5 | 76 | 36.5 |
| c1csc(-c2ccc(-c3ccsc3)s2)c1 | > 100 | > 100 | > 100 | > 100 | > 100 | > 100 | > 100 | > 100 | > 100 | > 100 | > 100 | > 100 | > 100 | > 100 | > 100 | > 100 |
| Cc1cc(O)c2c(c1)C(=O)C=C(Br)C2=O | 23.4 | > 58.1 | > 100 | 24 | 31.8 | 35.6 | 26.5 | 40.3 | 29.3 | 95.1 | 29.8 | 98.9 | 28.7 | 25.4 | > 60.5 | 12.2 |
| CCOC(=O)C(Cc1ccc2c(c1)CCC2)Cc1ccc2c(c1)CCC2 | > 100 | > 100 | > 100 | > 100 | > 100 | > 100 | > 100 | > 100 | > 100 | > 100 | > 100 | > 100 | > 100 | 47.8 | > 100 | > 100 |
| Nc1nc(NNc2ccccc2F)cc(=O)[nH]1 | > 100 | > 100 | > 100 | > 100 | > 100 | > 100 | > 100 | > 100 | > 100 | > 100 | > 100 | – | > 100 | > 100 | > 100 | > 100 |
| O=C1NC(=O)/C(=C/c2ccc(S(=O)(=O)N/N=C/c3ccccc3)cc2)N1 | > 100 | > 100 | > 100 | > 100 | > 100 | > 100 | > 100 | > 100 | > 100 | > 100 | – | > 100 | > 100 | > 100 | > 100 | > 100 |
| CCn1c(SCC(=O)NNC(=S)Nc2ccc(Cl)cc2)nc2ccccc2c1=O | > 100 | > 100 | > 100 | > 100 | > 100 | > 100 | > 100 | – | > 100 | > 100 | > 100 | > 100 | > 100 | > 100 | > 100 | > 100 |
| N=C1/C(=C/c2ccccc2)C(=O)N=C2SC=NN12 | > 100 | > 100 | > 100 | > 100 | > 100 | > 100 | > 100 | > 100 | > 100 | > 100 | 88.5 | > 100 | > 100 | > 100 | > 100 | > 100 |
| O=[N+]([O-])c1ccc(OP(=O)(O)OCC2OC(CP(=O)(O)O)C(O)C2O)cc1 (centres undefined) | > 100 | > 100 | > 100 | > 100 | > 100 | > 100 | > 100 | > 100 | > 100 | > 100 | > 100 | > 100 | > 100 | > 100 | > 100 | > 100 |
| O=C(O)c1cccc(S(=O)(=O)NN2C(=O)CSC2c2ccccc2Cl)c1 (centres undefined) | > 100 | > 100 | > 100 | – | > 100 | > 100 | > 100 | > 100 | > 100 | > 100 | > 100 | > 100 | > 100 | > 100 | > 100 | > 100 |
| C=CCN1C(=O)/C(=C/c2ccccc2)N=C1SC1OC(COC(C)=O)C(OC(C)=O)C(OC(C)=O)C1OC(C)=O (centres undefined) | > 100 | > 100 | > 100 | > 100 | 52.9 | 72.2 | > 100 | > 100 | 64.6 | 58.9 | – | 53.4 | > 100 | > 100 | > 100 | > 100 |
| Cc1ccccc1C(=O)NC(O)(C(F)(F)F)C(F)(F)F | > 100 | > 100 | > 100 | > 100 | > 100 | > 100 | > 100 | > 100 | > 100 | > 100 | > 100 | > 100 | > 100 | > 100 | > 100 | > 100 |
| COC(=O)CCN1CCN(CCO)CC1C (centres undefined) | > 10 | > 10 | > 10 | > 10 | > 10 | > 10 | > 10 | > 10 | > 10 | > 10 | > 10 | > 10 | > 10 | > 10 | > 10 | > 10 |
| CC(C)CNC(=O)c1c(NC(=O)c2ccccc2)sc2[nH]c(=O)n(-c3ccccc3)c(=O)c12 | > 100 | > 100 | 75.8 | > 100 | > 100 | > 79.1 | > 100 | > 100 | 61 | > 100 | > 84 | > 100 | > 100 | > 100 | 67.1 | > 100 |
| COc1cc(CCC(=O)O)c2cc3ccccc3cc2c1O | 34.4 | 65.2 | 60.5 | 29.7 | 47.6 | > 100 | 31 | 43.8 | 32.2 | 29.9 | – | 38.1 | 32.5 | 53.5 | 37.6 | 51.5 |
| CSc1ncc2c(C#N)c3ccccn3c(=O)c2n1 | > 100 | > 100 | > 100 | > 100 | > 100 | > 100 | > 100 | > 100 | > 100 | > 100 | > 100 | > 100 | > 100 | > 100 | > 100 | > 100 |
| CCSC1=C(C#N)C2(CCCCC2)C2=C(CC(C)(C)CC2=O)N1 | > 100 | > 100 | 76.2 | 73.2 | > 100 | > 100 | > 100 | > 100 | 74.2 | > 100 | > 100 | > 100 | > 100 | > 100 | – | > 100 |
| C=CCC1(O)C(=O)OC2C(O)COC21O (centres undefined) | > 100 | > 100 | > 100 | > 100 | > 100 | > 100 | > 100 | > 100 | > 100 | > 100 | > 100 | > 100 | > 100 | > 100 | > 100 | > 100 |
| c1ccc(CNCCCNCCCCNCCCNCc2ccccc2)cc1 | 14.4 | 15.2 | 27.4 | 33.1 | 11.2 | 3.74 | 31.1 | 5.86 | 21.4 | 22.5 | 3.72 | 25.6 | 4.13 | 14.2 | 35.2 | 9.13 |
| Cc1cc(CN(Cc2ccccc2)Cc2nc3ccccc3[nH]2)c(O)c(CN(Cc2nc3ccccc3[nH]2)Cc2nc3ccccc3[nH]2)c1 | 8.87 | 38 | > 25.1 | 98.7 | 60.6 | > 100 | 23.1 | > 69.6 | – | > 100 | 22.4 | > 100 | 29 | 13.3 | > 61.6 | > 100 |
| O=C1CCCC(=O)N1n1c(Cc2ccc(Cl)cc2)n[nH]c1=O | > 100 | > 100 | > 100 | > 100 | > 100 | > 100 | > 100 | > 100 | > 100 | > 100 | > 100 | > 100 | > 100 | > 100 | > 100 | > 100 |
| O=S(=O)(c1ccccc1)[C@@H]1[C@H]2C=C[C@](CS)(O2)[C@H]1S(=O)(=O)c1ccccc1 | > 100 | > 100 | > 100 | > 100 | > 100 | > 100 | > 100 | > 100 | > 100 | > 100 | – | > 100 | > 100 | > 100 | > 100 | 30.6 |
| Cc1ccc(O)c(-c2cc(-c3ccccc3)nc(/N=C\c3ccccc3)n2)c1 | > 100 | – | > 100 | > 100 | > 100 | 79.8 | > 100 | > 100 | 29.8 | > 100 | > 100 | > 100 | > 100 | > 100 | > 100 | > 100 |
| Cc1ccc(C)c(NC(=O)/C(=N\N)C(c2cnc3ccc([N+](=O)[O-])cc3n2)[N+](=O)[O-])c1 (centres undefined) | > 100 | > 100 | – | 62.9 | > 100 | > 100 | > 100 | > 100 | 40.1 | > 100 | > 100 | > 100 | > 100 | > 100 | > 100 | > 100 |
| Cc1ccc(S(=O)(=O)Nn2c(C)cc3ccc(S(=O)(=O)Nc4ccccc4[N+](=O)[O-])cc3c2=O)cc1 | > 100 | > 100 | > 100 | > 100 | > 100 | > 100 | > 100 | > 100 | > 100 | > 100 | > 100 | > 100 | > 100 | > 100 | > 100 | > 100 |
| COc1ccc(/C=N/NS(=O)(=O)c2ccc(/C=C3\NC(=O)N(C)C3=O)cc2)cc1 | > 100 | > 100 | > 100 | > 100 | > 100 | > 100 | > 100 | > 100 | > 100 | > 100 | – | > 100 | > 100 | > 100 | > 100 | > 100 |
| O=C1CC(NC2CC(=O)c3c(Br)sc(Br)c32)c2c(Br)sc(Br)c21 (centres undefined) | 8.44 | 30.8 | 28.4 | > 78.1 | 7.52 | 33.2 | 4.93 | 8.91 | 5.22 | 3.36 | – | 26.2 | 5.82 | 4.68 | 27.8 | 4.95 |
| CC(=O)O[C@@H]1[C@@H](C)[C@]2(CC(c3ccoc3)OC2O)C2CCC3O[C@]3(C)[C@]2(C)[C@@H]1OC(C)=O (some centres undefined) | > 100 | – | > 100 | > 100 | > 100 | > 100 | > 100 | > 100 | > 100 | > 100 | 65.3 | > 100 | > 100 | 44.1 | > 100 | > 100 |
| N=c1oc2ccc([N+](=O)[O-])cc2cc1C(=O)Nc1ccccn1 | > 100 | > 100 | > 100 | > 100 | 43.9 | 78.5 | > 100 | > 100 | > 100 | > 100 | > 100 | > 100 | > 100 | > 100 | – | > 100 |
| CN1C(=O)CN=C(c2ccccc2F)c2cc(N=C=S)ccc21 | > 100 | > 100 | > 100 | > 100 | > 100 | > 100 | > 100 | > 100 | > 100 | > 100 | – | > 100 | > 100 | > 100 | > 100 | > 100 |
